Measurements reported in US8580321B2, “Method for reducing the effects of chemotherapy using flagellin related polypeptides” (priority 2003, dated 2013).

How the values were obtained:
NF-κB = experiment: NF-κB-regulated luciferase reporter assay in H116 human colon cancer cells; assay type: cell-based; conditions: for activation of NF-κB-regulated luciferase reporter: H116 cells, luciferase measured six hours after addition
Excerpt: While translocation of NF-κB to the nucleus is a crucial step in induction of NF-κB-regulated inhibitors of apoptosis, it is not sufficient in itself. To directly test the ability of selected fragments to induce expression of NF-κB-regulated genes, we performed reporter assay experiments. Flagellin and the AA′, BB′, A′ and B′ fragments were used for treatment of H116 human colon cancer cells carrying luciferase gene under a NF-κB-responsive promoter. The reporter construct contained three NF-κB-binding sites from the E-selectin promoter combined with a Hsp70 minimal promoter that is routinely used for the detection of NF-κB status of cells. Luciferase activity was measured in cell lysates six hours after addition of flagellin or its truncated fragments into the medium. TNF was used as positive control.
In order to study the ability of the AA′ fragments to directly activate NF-κB-regulated transcription, we performed reporter assay experiments as described above for a wide range of concentrations of flagellin, original AA′ and AA′-derived fragments.

A549 cells = experiment: Cell growth inhibition assay (methylene blue) after gamma-irradiation, A549; assay type: cell-based, human; conditions: 2 μg/ml, with or without 7 or 10 Gy, 72 hours
Description: Tumor cells were seeded in wells of three 96-well plates in 3 different densities (0.5×10^4, 1×10^4 and 2×10^4 cells/well, producing single-cell, spare or semi-contact layer). After cells had attached to plastic, CBLB502 (2 μg/ml) was added to the wells of non-irradiated cells, or 15 min prior to 7 Gy or 10 Gy of gamma-irradiation. Control wells received equal volume of vehicle (PBS). All points were done in quadruplicate. 72 hours after irradiation, medium was replaced with methylene blue in 50%-methanol and the relative numbers of viable cells in wells were measured using spectrophotometer at 650 nm. This experiment was also repeated with fixed dose of 1×10^4 A549 cells/well, CBLB502 was added 1 hour before 5, 10 or 15 Gy of gamma-irradiation (data not shown). We observed a similar effect of flagellin in all tested experiment conditions.

[1] = tested on: NIH3T3-derived sarcoma and B16 melanoma tumors; experiment: Tumor sensitivity to radiation treatment in syngeneic mouse tumor models; assay type: in vivo
Description: Left Panel: NIH3T3-derived sarcoma cells were injected s.c. in NIH-Swiss mice. When tumors reached 7-10 mm in diameter, mice received three 4.3 Gy doses of total body irradiation, with or without pretreatment with AA′. […] U/t: untreated; AA′: AA′ with no irradiation; 3×4Gy: irradiation only; 3×4Gy+AA′: AA′ and irradiation. (The shape of curves reflects slow growth of tumors that is a characteristic of this model). […] Right Panel: The experiment was done in the same way with another syngeneic mouse tumor model: B16 melanoma (C57BL6 background). Treatment was applied when tumors reached 4-5 mm in diameter and involved three subsequent 4 Gy doses of total body gamma radiation applied with or without pretreatment with AA′ (30 min. before irradiation, 5 μg/mouse).
The ultimate test of a potential radioprotective agent in cancer treatment is tumor selectivity, its ability to protect normal tissues while providing no or little protection to the tumor. We injected 10 NIH-Swiss mice subcutaneously, in both flanks (20 tumors total), with 2×10^6 cells of syngeneic sarcoma cell line model (NIH3T3-derived and spontaneously transformed sarcoma with p53 inactivated by dominant negative inhibitor GSE56). When tumors reached the size of 5-7 mm in diameter (day 5), the mice were injected subcutaneously with 0.2 mg/kg of AA′ or saline vehicle and irradiated 1 hours later with […] of total-body y-irradiation (3×4.3 Gy=12.9 Gy total dose). Injections and irradiations were done at days 5, 6 and 7.

small intestinal crypts = experiment: BrdU incorporation in small intestinal crypts; assay type: in vivo, mouse
Excerpt: Besides a direct inhibition of apoptosis, temporary halt of proliferation followed by repair may be an alternative mechanism of radioprotection, and has been described for other radioprotectors such as TGF-β3 (Booth D., et. al., Int J Cancer. 2000 Apr. 1; 86(1):53-9). Accordingly, we decided to examine the possible influence of CBLB502 (AA′) on the proliferative activity of the cells in small intestine (with and without irradiation) during the first hours after its administration (FIG. 32). CBLB502 or PBS was injected i.p. in mice, followed after 30 min by 15 Gy irradiation (if used). 2 hr after injection (1.5 hr after irradiation if it was applied), BrdU was injected intraperitoneally. Samples of small intestine were obtained after additional 1.5 hours.
We next determined the duration of the CBLB502-induced growth arrest in small intestine. CBLB502 or PBS was injected i.p. in mice, BrdU was injected 1 or 4 hours later and samples of small intestine were obtained after additional 1.5 hours from several mice (samples from three mice are shown) (FIG. 33).

[2] = Blood urea (QuantiChrom Urea Assay Kit) as renal toxicity of cisplatinum; conditions: 0.04 mg/kg s.c., Day 4 post-treatment, n=3
Description: Urea was detected in mouse blood serum at Day 4 post-treatment using a QuantiChrom Urea Assay Kit (BioAssay Systems).

[3] = Cisplatinum-induced weight loss in FVB mice; assay type: in vivo, mouse; conditions: CBLB502 0.04 mg/kg s.c. 30 min prior to cisplatinum 10 mg/kg i.p., n=3
[4] = assay type: in vivo, mouse; conditions: for antibody level at 21 day: 21 days after injection
Description: We tested the ability of AA′ to protect mice that were exposed to it. A group of 20 NIH-Swiss mice were subcutaneously injected with 5 μg/mouse (0.2 mg/kg) of AA′. A second injection of a equal dose of AA′ was administered after 21 (10 mice) and 28 days (another 10 mice), with the time elapsed being sufficient for formation of antibodies. The second injection of AA′ was followed by 13 Gy of whole-body gamma irradiation (1 h post-injection).
We also performed an ELISA determination of antibody titers in order to quantify the effect that AA′ has on the immune status of the organism. 96-well plates were coated with flagellin or AA′, […], […], and incubated overnight at +4° C. Blood serum samples collected from mice were added to the wells in several dilutions and incubated overnight followed by 6 hrs reaction with secondary goat anti-mouse IgG HPO-conjugate antibodies. Measurements were performed using a spectrophotometer with a 414 nm filter.

mice = conditions: known from literature; cited from earlier work

AA′: flagellin fragment (1-177)-Linker-(402-505), SEQ ID NO: 8
activation of NF-κB-regulated luciferase reporter (NF-κB): capable of NF-κB activation | level of NF-κB-regulated transcription relative to flagellin (NF-κB; reporter assay, over the studied range of concentrations): comparable to such of flagellin | NF-κB reporter activity relative to flagellin (NF-κB; very low concentration range): more active than flagellin | effect on cell numbers (A549 cells): no or slight effect | mice cured and surviving radiotherapy plus AA′ ([1]; 3×4.3 Gy with AA′, irradiated-only mice all died by day 18): 100% | tumor growth in unirradiated mice ([1]; AA′ without irradiation): decrease in the growth rate of tumors | radiation-induced shrinkage of tumors ([1]; s.c. 0.2 mg/kg 1 hour before each of 3 irradiations, sarcoma in NIH-Swiss mice): enhanced | effect on radiosensitivity of tumors ([1]; sarcoma and B16 melanoma): no effect | incorporation of BrdU in intestine, BrdU after 1 hour (small intestinal crypts; BrdU injected 1 hour after CBLB502): reduced as compared to control | incorporation/DNA synthesis, BrdU after 4 hr (small intestinal crypts; BrdU injected 4 hr after CBLB502): even higher than in control | level of BrdU incorporation, irradiated mice (small intestinal crypts; i.p. 30 min before 15 Gy, NIH-Swiss mice): strongly reduced | DNA synthesis (BrdU incorporation) in crypts, no irradiation (small intestinal crypts; i.p., BrdU 2 hr after injection, NIH-Swiss mice): nearly undetectable | mean OD 490 (blood urea), CLBL502 alone [2]: less than 0.50 | mean weight loss compared to cisplatinum alone, FVB mice [3]: lower mean weight loss | immunogenicity of the original protein removed ([4]; AA′ versus flagellin): > 95% | reduction of immunogenicity compared to the original protein ([4]; AA′ versus flagellin): approximately 25 × | increase of antibody level at 28 days over 21 day ([4]; serum): about 10% | antibody level at 21 day ([4]; serum): ~0.8 mg/mL

flagellin: Salmonella dublin FliC flagellin, 505 amino acids, SEQ ID NO: 1; recombinant full-length protein
activation of NF-κB-regulated luciferase reporter (NF-κB): capable of NF-κB activation | highest tolerable dose (mice): 300 μg/mouse | antibody level at 21 day ([4]; serum): around 20 mg/ml | antibody level at 28 days ([4]; serum, 28 days after injection): around 20 mg/ml
